Data reported in US20100009970A1, “COMPOSITIONS AND METHODS FOR TREATMENT OF VIRAL DISEASES” (Combinatorx (Singapore) Pte. Ltd., priority 2008, published 2010).
“And” between values parts separate entries of the source, which are not always exact repeats. Equal values may be shown once. Where a name gives a salt, the structure may show the parent alone. Read-outs that look alike come from different tables or passages of the source.

Legend:
[1] = test system: Huh7 cells expressing a subgenomic RNA replicon of Con1 (genotype 1b) sequence origin; assay: microbe, parasite or virus in culture; settings: Hepatitis C virus
in vitro = settings: human
[2] = test system: Huh7 cells expressing a subgenomic RNA replicon of Con1 (genotype 1b) sequence origin
[3] = GETYPE1B, Huh-7, 72 h, read-out: Max Effect @CC30 (inhibition)
[4] = Huh-7, 48 h, read-out: Max Effect
[5] = Huh-7, read-out: IC50 (uM) [SG]
[6] = Huh-7, read-out: Max Effect@CC30 (inhibition)

Structure (SMILES) | Emax [1, 3] [%] | IC50 ([1]; Huh-7, 48 h) [µM] | Emax [1, 4] [%] | IC50 ([1]; Huh-7, 72 h) [µM] | IC50 [1, 5] [µM] | Emax [1, 6] [%] | CC50 (in vitro; CC50) [µM] | CC50 (in vitro; CC50 (uM)) [µM] | CC50 (in vitro; CC50 (uM) [SG]) [µM] | Synergy Score [2] | TI (CC50/IC50) [2] | further results
CN[C@H]1CC[C@@H](c2ccc(Cl)c(Cl)c2)c2ccc(S(=O)(=O)NC)cc21 [Sertraline Sulfonamide, (5S,8S)-5-(3,4-dichlorophenyl)-N-methyl-8-(methylamino)-5,6,7,8-tetrahydronaphthalene-2-sulfonamide] | 40.5 ± 5 | 7.26 | 94 | 6.87 ± 0.2 | 6.87 ± 0.2 | 40.5 ± 5 | 11.6 | 13.04 ± 0.1 | 13.04 ± 0.1 | 0.43 | 1.605 | –
CNC1CCC(c2ccccc2OC)c2ccccc21 (stereo not shown) [Sertraline B-Ring Ortho-Methoxy] | – | – | – | – | – | – | – | – | – | 0.81 | – | CC50 (Huh7 parental cells): > 22.3 µM; Max Effect [2]: 24%
CN[C@H]1CC[C@@H](c2ccc(Cl)c(Cl)c2)c2ccc(S(=O)(=O)N(C)C)cc21 [Sertraline N,N-dimethylsulfonamide, (5S,8S)-5-(3,4-dichlorophenyl)-N,N-dimethyl-8-(methylamino)-5,6,7,8-tetrahydronaphthalene-2-sulfonamide] | 38 | 7.3 | 91 | 6.69 | 6.69 | 38 | 7.85 | 8.87 | 8.87 | 0.53 | 1.076 | –
CNC1CCC(c2ccccc2OC)c2ccccc21 (stereo not shown) [Sertraline B-ring Ortho Methoxy, 4-(2-methoxyphenyl)-N-methyl-1,2,3,4-tetrahydronaphthalen-1-amine] | – | – | – | – | – | – | – | 58.6 | 58.6 | – | – | CC50 (Huh7 parental cells; human): > 50 µM
CN[C@H]1CC[C@@H](c2ccc(Cl)c(Cl)c2)c2ccc(NS(=O)(=O)C3CC3)cc21 [N-((5S,8S)-5-(3,4-dichlorophenyl)-8-(methylamino)-5,6,7,8-tetrahydronaphthalen-2-yl)cyclopropanesulfonamide] | – | – | – | – | 5.62 | 58.8 | – | 7.45 | 7.45 | – | – | IC50 ([1]; Huh-7): 5.63 µM; IC90 ([1]; Huh-7): 10.7 µM; Max Effect@CC30 (inhibition) [2]: 56.82%
CN[C@H]1CC[C@@H](c2ccc(Cl)c(Cl)c2)c2ccccc21.Cl [(1R,4S) Sertraline Hydrochloride] | – | – | – | – | – | – | – | – | – | – | – | CC50 (Huh7 parental cells): 14.2 ± 0.16 µM; Max Effect@CC30 (inhibition) [2]: 90.8 ± 1.6%; IC90 ([2]; Hydrochloride): 12.1 ± 0.83 µM
NC1CCC(c2ccc(Cl)c(Cl)c2)c2ccccc21 (racemic) | – | 6.26 | 99 | – | – | – | 7.84 | – | – | 1.51 | 1.252 | –
CN[C@H]1CC[C@@H](c2ccc(Cl)c(Cl)c2)c2ccccc21 [Sertraline HCL, Sertraline HCl, reference compound] | 62 ± 11.2 | – | – | – | – | 62.6 ± 21.5 | – | – | 11.7 ± 2.03 | – | – | CC50 at 72 h (in vitro; CC50 (uM)): 11.8 ± 2.09 µM; CC50 (Huh7 parental cells; human): 11.3 µM
CN[C@H]1CC[C@@H](c2ccc(Cl)c(Cl)c2)c2ccc(CO)cc21 [Sertraline A-Ring Ethanol, ((5S,8S)-5-(3,4-dichlorophenyl)-8-(methylamino)-5,6,7,8-tetrahydronaphthalen-2-yl)methanol] | 92 ± 5.6 | 4.48 | 97 | 2.85 ± 1.21 | 2.85 ± 1.21 | 92 ± 5.6 | 11.1 | 14.2 ± 0.3 | 14.2 ± 0.3 | 1.46 | 2.472 | IC90 ([1]; Huh-7): 11.3 ± 2.91 µM; IC90 ([1]; Huh-7, 72 h): 11.3 ± 2.91 µM
CN[C@H]1CC[C@@H](c2ccc(Cl)c(Cl)c2)c2ccc(C#N)cc21 [Sertraline Nitrile, (5S,8S)-5-(3,4-dichlorophenyl)-8-(methylamino)-5,6,7,8-tetrahydronaphthalene-2-carbonitrile] | 87 | 7.46 | 89 | 4.81 | 4.81 | 87 | > 13.4 | 14.8 | 14.8 | 0.52 | >1.796 | –
CN[C@H]1CC[C@@H](c2ccc(Cl)c(Cl)c2)c2ccc(C(=O)OC)cc21 [Sertraline A-ring Methyl Ester, (5S,8S)-methyl 5-(3,4-dichlorophenyl)-8-(methylamino)-5,6,7,8-tetrahydronaphthalene-2-carboxylate] | 78 | 6.42 | 99 | 9.13 | 9.13 | 78 | 8.01 | 13.7 | 13.7 | 0.51 | 1.248 | –
COC1CC[C@@H](c2ccc(Cl)c(Cl)c2)c2ccccc21 (single isomer, unassigned) [Methoxy 4S-Sertraline-P1] | – | – | – | – | 22.7 | – | – | – | > 50 | – | – | IC90 ([1]; Huh-7): 46.1 µM; Max Effect@CC30 (inhibition) [2]: 93.98%
CN[C@H]1CC[C@@H](c2ccc(Cl)c(Cl)c2)c2ccc(S(N)(=O)=O)cc21 [Sertraline Sulfonamide NH2, (5S,8S)-5-(3,4-dichlorophenyl)-8-(methylamino)-5,6,7,8-tetrahydronaphthalene-2-sulfonamide] | 63.5 ± 6.4 | 6.02 | 91 | 3.65 ± 2.3 | 3.65 ± 2.3 | 63.5 ± 6.4 | > 13.4 | 9.99 ± 4.4 | 9.99 ± 4.4 | 0.49 | >2.226 | –
CN[C@H]1CC[C@@H](c2ccc(Cl)c(Cl)c2)c2ccccc21 [Sertraline (e.g., hydrochloride), Sertraline, reference compound] | – | – | 99 | – | – | – | – | – | – | 2.76 | – | CC50 at 48 h (in vitro; CC50): 8.83 µM
CNC1CCC(c2ccc(C(F)(F)F)cc2)c2ccccc21 (stereo not shown) [Sertraline B-Ring para-Trifluoromethane, N-methyl-4-(4-(trifluoromethyl)phenyl)-1,2,3,4-tetrahydronaphthalen-1-amine] | 0 | 12.2 | 99 | 13.4 | 13.4 | 0 | 15.9 | 14.2 | 14.2 | 1.93 | 1.299 | –
CSc1ccc(Oc2ccc(Br)cc2CN(C)C)cc1C [Compound 9, (5-bromo-2-(3-methyl-4-(methylthio)phenoxy)phenyl)-N,N-dimethylmethanamine] | – | – | – | – | 14.5 | 79 | – | – | 54.8 | – | – | CC50 (Huh7 parental cells; human): > 50 µM
CNC1CCC(c2ccc(Oc3ccccc3)cc2)c2ccccc21 (stereo not shown) [Sertraline B-ring para-Phenoxy, N-methyl-4-(4-phenoxyphenyl)-1,2,3,4-tetrahydronaphthalen-1-amine] | 65 | 3.75 | 99 | 5.15 | 4.02 ± 1.6 | 81 ± 22.6 | 7.46 | 6.8 | 7.85 ± 1.48 | 0.38 | 1.987 | –
CN(C)[C@H]1CC[C@@H](c2ccc(Cl)c(Cl)c2)c2ccc(NS(C)(=O)=O)cc21 [Dimethyl Sertraline Reverse Sulfonamide, N-((5S,8S)-5-(3,4-dichlorophenyl)-8-(dimethylamino)-5,6,7,8-tetrahydronaphthalen-2-yl)methanesulfonamide] | 70 | – | 44 | 3.45 | 3.45 | 70 | > 13.4 | 16.5 | 16.5 | 1.22 | – | –
COC1CC[C@@H](c2ccc(Cl)c(Cl)c2)c2ccccc21 (stereo partly drawn) [Methoxy 4S-Sertraline] | – | – | – | – | – | – | – | > 50 | – | – | – | IC50 ([1]; Huh-7): 22.7 µM; IC50 [2]: 26.4 µM; IC90 [2]: 46.1 µM and 46.9 µM; Max Effect@CC30 (inhibition) [2]: 93.98% and 47.76%
CN[C@H]1CC[C@@H](c2ccc(Cl)c(Cl)c2)c2ccc(CNS(C)(=O)=O)cc21 [N-(((5S,8S)-5-(3,4-dichlorophenyl)-8-(methylamino)-5,6,7,8-tetrahydronaphthalen-2-yl)methyl)methanesulfonamide] | 59.7 ± 3.5 | 5.97 | 100 | 3.28 ± 1.5 | 3.28 ± 1.5 | 59.7 ± 3.5 | 10.5 | 11.2 ± 0.3 | 11.2 ± 0.3 | 0.55 | 1.761 | –
CN(C)[C@H]1CC[C@@H](c2ccc(Cl)c(Cl)c2)c2ccccc21 [N,N-Dimethyl Sertraline, (1S,4S)-4-(3,4-dichlorophenyl)-N,N-dimethyl-1,2,3,4-tetrahydronaphthalen-1-amine] | 99 | 7.77 | 70 | 5.22 ± 2.2 | 6.07 ± 2.2 | 99 | > 13.4 | 72.2 | 64.7 ± 10.6 | 0.89 | >1.727 | IC90 ([1]; Huh-7): 18.1 ± 2.77 µM; IC90 ([1]; Huh-7, 72 h): 17.1 ± 2.93 µM
N[C@@H]1CC[C@H](c2ccc(Cl)c(Cl)c2)c2ccccc21 [(1R,4R)-Desmethyl Sertraline, (1R,4R)-4-(3,4-dichlorophenyl)-1,2,3,4-tetrahydronaphthalen-1-amine] | 0 | 7.32 | 81 | 8.7 | 8.7 | 0 | > 8.83 | 8.1 | 8.1 | 0.57 | >1.206 | –
O=C1Nc2ccc3ncsc3c2/C1=C/c1cnc[nH]1 [PKR inhibitor, reference compound] | – | – | – | – | – | – | – | – | – | – | – | IC50 [2]: 1.75 µM
COc1ccc(C[C@H]2NC[C@H](O)[C@H]2OC(C)=O)cc1 [Anisomycin, reference compound] | – | – | – | – | – | – | – | – | – | – | – | IC50 [2]: 0.608 µM
